Data as given in US10858357B2, “Water-soluble myosin 2 inhibitors for the treatment of neurological, neuropathic or psychiatric diseases” (PARIS SCIENCES ET LETTRES-QUARTIER LATIN, priority 2016, dated 2020).
Converted amounts (≈) assume the structure as drawn.

Experiments:
[1] = system: cannabinoid-induced working memory loss; experiment: Novel object recognition (NOR) test with CP55,940; format: in vivo; settings: CP55,940 1 hour prior to familiarization, no neurelaxin-A
Procedure: In this experiment, a novel object recognition (NOR) test was performed.
In this test animals are presented to two objects and it will explore them for a while. After, one of the objects is changed for a new and different one. Under normal circumstances animals will be attracted to the novel object and will spend more time exploring it, by comparison to the older and already known object. Animals with memory deficit will explore both objects equally.
The synthetic cannabinoid CB1R agonist CP55,940 is administrated 1 hour prior to the familiarization step. Thirty minutes prior to the familiarization animals are either treated or not with neurelaxin-A.

[2] = system: EGFP-α-tubulin H2B-mCherry HeLa Kyoto cells; experiment: HeLa cell toxicity, 12-hour confocal time-lapse imaging; format: cell-based, human; settings: time-lapse imaging, concentration not given
Procedure: For phototoxicity experiments, confocal time-lapse imaging of HeLa Kyoto H2B-mCherry eGFP-α-tubulin cells for 12 hours was performed in DMEM further supplemented with 25 mM HEPES in order to achieve CO2 independent media. Confocal time-lapse imaging was performed on a Zeiss LSM 710 using a Plan Apo 20×/0.8 objective, with the following parameters: 2% laser intensity at λexc=488 nm, 3% laser intensity at λexc=543 nm, 1.2× zoom, average 4, line step 1, 1000×1000 pixels, 0.35 μm pixel size, 0.65 μs dwell time, 3 slice/z-stack with 7 μm between slices at every 10 minutes.
To test the cytotoxicity of neurelaxin-A in live-cell fluorescence microscopy, time-lapse EGFP-α-tubulin H2B-mCherry labeled HeLa Kyoto cells were imaged in a confocal microscope (FIG. 4a).
Cells were treated with 50 μM neurelaxin-A and imaged for 12 hours applying 3 z-sections every 10 minutes.

[3] = cited from earlier work; for solubility: Képiró et al., Angew. Chem. Int. Ed., 2014
myosin 2 = settings: Lucas-Lopez et al., 2008; cited from earlier work

In the case of `CCCCCCC(C)(C)c1ccc([C@@H]2C[C@H](O)CC[C@H]2CCCO)c(O)c1` [CP55,940, reference compound], the “NOR test: exploration of familiar and novel object” value [1] is reported as “spend similar time exploring both objects”.
In the case of `Cc1ccc2c(c1)C(=O)C1(O)CCN(c3ccccc3)C1=N2` (stereo not drawn) [Blebbistatin], the “cytotoxic phenotype in HeLa Kyoto cells (positive control)” value [2] is listed as “cells round up from the surface and eventually die”, the solubility [3] is listed as “around 20 μM” and the “water solubility: concentration above which slow precipitation is observed” value ([3]; background statement) is listed as 10 µM (≈ 2.92 µg/mL).
In the case of `Cc1ccc2c(c1)C(=O)C1(O)CCN(c3ccc([N+](=O)[O-])cc3)C1=N2` (stereo not drawn) [Para-nitroblebbistatin], the solubility [3] is listed as “around 20 μM”.
In the case of `O=C1c2ccc([N+](=O)[O-])cc2N=C2N(c3ccccc3)CCC12O` (stereo not drawn) [Nitroblebbistatin], the IC50 (myosin 2) is listed as 27.5 µM.
